Assay results from PubChem BioAssay AID1361 (SRMLSC, 2008).
Active and inactive are the calls of the source. How the calls were made is not given here.

Assay: mitochondrial fusion inhibitors, confirmation, cell-based, chemical genetic, wild-type and mutant (AID 1361)
Conditions: Cell-based mitochondrial fusion phenotype, imaging
[1] = mutant cells, measured here: mutant cell line IC50

SMILES	IC50 (WT cells)	IC50 [1] [µM]
O=C(COC(=O)c1ccc([N+](=O)[O-])s1)Nc1ccccc1	17.7 µM	> 25
Cn1c(CCN2CCN(c3ccccc3)CC2)nc2cc(NC(=O)c3ccco3)ccc21	> 25 µM (inactive)	> 25
COC(=O)c1ccc(CSc2nc3ccccc3c(=O)n2CC(C)C)o1	> 25 µM (inactive)	> 25
N#CC1=C(N)NC(SCc2ccc(Br)cc2)=C(C#N)C12CCCCC2	> 25 µM (inactive)	> 25
CC(C)(C)C1CCc2c(sc(NC(=O)CSc3ncn[nH]3)c2C#N)C1 (configuration not stated)	15.8 µM	> 25
O=C(NCc1ccccn1)C(=O)Nc1nc(C23CC4CC(CC(C4)C2)C3)cs1	15 µM	> 25
Cc1ccc(-n2nc3c(c2NC(=O)c2ccc4c(c2)OCO4)CSC3)c(C)c1	> 25 µM (inactive)	> 25
CCOc1ccccc1N1CCN(C(=O)Nc2ccc(Cl)c(Cl)c2)CC1	20.9 µM (inactive)	> 12.5
COC(=O)C1=C(O)C(C(=O)OC)C(c2ccc(C)cc2)C(C#N)(C#N)C1c1ccc(C)cc1 (configuration not stated)	4.71 µM	> 25
O=C1/C(=C/c2cccc3ccccc23)CCCc2ccccc21	17.3 µM	> 25
CCn1cc(C(=O)N2CCc3ccccc32)c(=O)c2cc(S(=O)(=O)N(C)C3CCCCC3)ccc21	> 25 µM (inactive)	> 25
Cc1ccccc1S(=O)(=O)c1c(C)cc(C)n(CC(C)C)c1=O	> 25 µM (inactive)	> 25
Cc1cccc(N2CCN(C(=O)COc3ccc4c(c3)CCC4)CC2)c1C	14.8 µM	> 25
N#CC(C#N)=c1ccc2c(c1)N1C3=C(CCCC3)CC3CCCCC31N=2 (configuration not stated)	3.41 µM	7.81
Cc1nn(-c2ccccc2)c2sc(C(=O)N(Cc3ccco3)C(C)C(=O)NC(C)(C)C)cc12 (configuration not stated)	7.45 µM	19.6

More lines, now with the values ahead:

IC50 (WT cells)	IC50 [1] [µM]	SMILES
6.62 µM	> 25	COC(=O)C1=C(Nc2ccc(C)cc2)C=C(C)C(C(=O)OC)C1c1ccc(F)cc1 (configuration not stated)
> 25 µM (inactive)	> 25	CCOC(=O)c1c(-c2ccc(C)cc2)csc1NC(=O)C1CCCO1 (configuration not stated)
> 25 µM (inactive)	> 25	COc1cccc2cc(C(=O)N3CCc4ccccc43)c(=O)oc12
> 25 µM (inactive)	> 25	NC(=O)c1ccc(N2CCCCC2)c(N2C(=O)C3CC=CCC3C2=O)c1 (configuration not stated)
> 25 µM (inactive)	> 25	Cc1cc2ncn(/N=C/c3cccnc3)c2cc1C
6.02 µM	> 25	COc1ccc2ccc3c(c2c1)N=CC1(O3)N(C)c2ccccc2C1(C)C (configuration not stated)
9.62 µM	> 25	Cc1nc(N2CCCCC2)c2c(C)c(C(=O)Nc3cccc(C(F)(F)F)c3)sc2n1
> 25 µM (inactive)	> 25	Cc1cccc(N2CCN(C(=O)c3ccc(Cl)c(S(=O)(=O)NCc4ccco4)c3)CC2)c1C
2.16 µM	10.5	O=C(C1=C[C@H](c2csc3ccccc23)C[C@H](OCc2ccc(CO)cc2)O1)N1CCN(Cc2ccc3c(c2)OCO3)CC1
> 25 µM (inactive)	> 25	COc1cccc(N2C(=O)C(c3ccccc3)=C(c3nc4ccccc4s3)C2NC(C)=O)c1 (configuration not stated)
21.8 µM	> 25	Cc1ccc(NC(=S)N(Cc2cccc(Br)c2)CC2CCC(C(=O)O)CC2)cc1Cl (configuration not stated)
> 25 µM (inactive)	> 25	Cc1cc(N=Cc2cc(Cl)ccc2O)no1
9.44 µM	> 25	c1ccc(-c2csc3ncnc(N4CCc5ccccc5C4)c23)cc1
> 25 µM (inactive)	> 25	Cc1[nH]c2ccccc2c1/C=C(\C#N)C(=O)NC(C)c1ccccc1 (configuration not stated)
24.2 µM	> 25	COC(=O)C1=C(C)N(C(C)c2ccccc2)C(=O)/C1=C\c1ccco1 (configuration not stated)
10.6 µM	> 25	Cc1ccc(-n2cccc2/C=C2\C(=N)N3N=C(C(C)C)SC3=NC2=O)cc1
12.6 µM	> 25	CCOC(=O)c1c(NS(=O)(=O)c2ccc(Br)cc2)sc2c1CCC2
14 µM	> 25	CCCc1cc(-c2nc(N)ncc2-c2ccc3c(c2)OCCCO3)c(O)cc1OC
8.35 µM	> 25	Cc1cc(-c2ccccc2)nc2cc(C(=O)N(Cc3ccccc3)Cc3ccccc3)nn12
18 µM	> 25	OC1(c2cccc(C(F)(F)F)c2)CCN(c2ncnc3c2[nH]c2ccccc23)CC1
> 25 µM (inactive)	> 25	CCOc1ccc(NC(=O)C2CC(=O)N(C(C)C)C2)cc1 (configuration not stated)
